Results as given in patent publication US7148194B2, “Method to increase fibronectin” (Kimberly-Clark Worldwide, Inc., priority 2002, dated 2006).

Tests used:
[1] = system: normal human dermal fibroblasts; test: fibroblast proliferation, Cell Titer 96, OD 490 nm; format: cell-based; design: fibroblast cell density versus control: dose or concentration left out as unconfirmed; conditions: 28 hours
Description: A human skin fibroblast cell line (Clonetics, Walkersville, Md., normal human dermal fibroblasts, neonatal, catalog number CC-2509) was tested to ascertain whether exposure to a peptide would stimulate cellular proliferation. […] Plates were incubated for 24 hours at 37° C. in a humidified 5% CO2 atmosphere. After incubation, the medium was aspirated and the wells were rinsed twice with 100 μl of serum-free DMEM. […] In addition, 100 μl of vehicle (serum-free DMEM) was added to 10 wells as control. All wells were incubated for 28 hours at 37° C. in a humidified, 5% CO2 atmosphere. After incubation, 20 μl of Cell Titer 96 Aqueous One Solution was added to all wells. The plates were swirled gently and placed back in the incubator for 45 minutes and spectrophotometric absorbance was read at 490 nm. Results were analyzed statistically using one-way ANOVA.

MMP-9 = target: T1, MMP-9 (Homo sapiens, UniProt P14780); test: enzymatic hydrolysis of fluoresceinated collagen by MMP-9; format: biochemical; conditions: extended time assay, FIG. 8
T1 construct: Active MMP-9 enzyme was purchased from Calbiochem; purchased Calbiochem
T1 sequence (P14780 107-707 limits assumed): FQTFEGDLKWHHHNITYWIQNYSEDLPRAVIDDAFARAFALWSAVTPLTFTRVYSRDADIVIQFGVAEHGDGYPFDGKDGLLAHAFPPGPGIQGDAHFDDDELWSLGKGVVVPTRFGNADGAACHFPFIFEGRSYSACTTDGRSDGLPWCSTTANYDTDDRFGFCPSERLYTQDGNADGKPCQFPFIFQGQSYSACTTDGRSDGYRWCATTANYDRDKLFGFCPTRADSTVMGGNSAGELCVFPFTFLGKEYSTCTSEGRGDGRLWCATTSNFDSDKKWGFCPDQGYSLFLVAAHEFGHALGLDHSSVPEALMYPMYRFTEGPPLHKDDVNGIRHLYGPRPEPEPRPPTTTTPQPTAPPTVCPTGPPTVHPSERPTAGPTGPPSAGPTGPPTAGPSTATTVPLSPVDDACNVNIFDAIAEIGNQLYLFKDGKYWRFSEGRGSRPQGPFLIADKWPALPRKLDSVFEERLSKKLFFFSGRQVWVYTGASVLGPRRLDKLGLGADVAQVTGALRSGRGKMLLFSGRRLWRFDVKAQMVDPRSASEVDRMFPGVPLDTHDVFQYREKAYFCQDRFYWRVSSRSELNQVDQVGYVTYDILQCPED
Description: Two enzymatic assays were performed. The first assay measured the enzymatic hydrolysis of fluoresceinated collagen by MMP-9 as a function of time. […] The protein mixture was added to the collagen substrate, and was quickly mixed. Fluorescence emission intensity at 520 nm was measured as a function of time (excitation wavelength 495 nm) in a Shimadzu RF5301 fluorometer (Lakowicz, 1983). The fluorescein release assay was used to determine the inhibitory constant (Ki) of the peptide inhibitor ([I]) according to Segel (1993) via the use of Dixon plots (1/v vs. [I]), such that: slope=Km/(Vmax Ki [S]) (1) where Km is the Michaelis constant, Vmax is the reaction maximum velocity, and [S] is the substrate concentration.

[2] = system: collagen production in human skin fibroblast cell line; test: collagen production in human skin fibroblasts, EIA; format: cell-based; conditions: for Mean (collagen EIA, absorbance at 450 nm) / Median (collagen EIA, absorbance at 450 nm): 48 hours, n=2; for collagen production versus control: 10^−5 and 10^−6 M, P<0.001
Description: The stimulation response of the 19mer peptide on collagen production in the human skin fibroblast cell line (Clonetics, Walkersville, Md., normal human dermal fibroblasts, neonatal, catalog number CC-2509) was measured using Takara Biomedicals EIA assay kit (TAK MKO101) sold by Panvera (Madison, Wis.). The cells were first grown in a 96-well assay system using DMEM with 10% fetal bovine serum (FBS) both purchased from Sigma Chemical Co, St. Louis, Mo. Serum-free DMEM was used as a control. […] Plates were incubated for 24 hours at 37° C. in a humidified 5% CO2 atmosphere. After incubation, the medium was aspirated and the wells were rinsed twice with 100 μl of serum-free DMEM. […] In addition, 100 μl of vehicle (serum-free DMEM) was added to 4 wells as control. All wells were incubated for 48 hours at 37° C. in a humidified, 5% CO2 atmosphere.
The assay was performed using the recommended 20ul of the supernatant from each well of the 96-well plate. Standard buffer and stop solutions were freshly prepared before running the assay. 100ul of antibody-POD conjugate solution (supplied with the kit) was added into the wells using pre antibody coated 96 well plate (supplied with the kit). 20ul of standard and test solutions (from the other 96-well plate containing fibroblasts) were added to appropriate wells. Plate was mixed gently, sealed and incubated for three hrs. at 37° C.
After incubation each well was washed carefully four times with PBS buffer (400ul). All the wells were completely emptied at the end of washing from any liquid. 100ul of substrate solution (hydrogen peroxide and tetramethylbenzidine in a buffer solution, supplied with the kit) was added to each well and the plate was incubated for 15 minutes. At this point 100ul of stop solution (freshly prepared 1N H2SO4) was added to each well in the same order as substrate. The plate was gently mixed and absorbance was read at 450 nm. Results were analyzed statistically using one-way ANOVA.

With `CC(C)[C@H](NC(=O)[C@H](CC(=O)O)NC(=O)[C@@H]1CCCN1C(=O)[C@H](CC(N)=O)NC(=O)CNC(=O)[C@H](CS)NC(=O)[C@H](CCCNC(=N)N)NC(=O)[C@@H]1CCCN1)C(=O)N[C@@H](C)C(=O)N[C@@H](CC(N)=O)C(=O)N[C@@H](Cc1ccc(O)cc1)C(=O)N[C@@H](CC(N)=O)C(=O)N[C@@H](Cc1ccccc1)C(=O)N[C@@H](Cc1ccccc1)C(=O)N1CCC[C@H]1C(=O)N[C@@H](CCCNC(=N)N)C(=O)N[C@@H](CCCCN)C(=O)N1CCC[C@H]1C(=O)N[C@@H](CCCCN)C(=O)O` [Peptide 19-mer] the “fibroblast cell growth versus control” value ([1]; 1×10^−4 M, P<0.001) was “even greater cell growth”, the “fibroblast cell proliferation versus control” value ([1]; 1×10^−6 M, P<0.05) was “a small amount of cell proliferation” and the “fibroblast cell density versus control” value ([1]; (19mer5), P<0.01) was “significantly greater cell density”. The “time over which MMP-9 catalyzed hydrolysis of collagen is effectively inhibited” value (MMP-9) was over 1000 min, the “Mean (collagen EIA, absorbance at 450 nm)” value ([2]; 1×10^−5 M) was 0.8365 and the “Median (collagen EIA, absorbance at 450 nm)” value ([2]; 1×10^−5 M) was 0.8365. For the same compound, the “Mean (collagen EIA, absorbance at 450 nm)” value ([2]; 1×10^−6 M) was 0.8315, the “Median (collagen EIA, absorbance at 450 nm)” value ([2]; 1×10^−6 M) was 0.8315 and the “collagen production versus control” value [2] was “increased collagen production”. The “collagen production versus control” value ([2]; listed as 19mer peptide) was “statistically significant amounts”.
